EC50, IC50 and AC50 data for four compounds are collected here from ChEMBL document CHEMBL1201862, “PubChem BioAssay data set” (2004).

In assay [1] the target is Beta-2 adrenergic receptor (Homo sapiens, UniProt P07550). Kind of assay: ADRB2 activation measured by internalization – cell-based, FAP fluorogen, flow cytometry, cherry pick 1, dose response (AID 588763). It is filed as functional. Background: A flow cytometer gives signals particle by particle.
For assay [2], the system named is HEK293. The assay is described as follows: optical interference in Abeta FP readout, dose response, artefact control for IDE activator project, biochemical, fluorescence polarization (AID 588442). Type of assay: functional, cell-based. The conditions noted are these: Homo sapiens. (In general: In fluorescence polarisation assays a small probe gives low polarisation when free and higher when bound to something large.)

For assay [3], the system named is HEK293. The assay is described as follows: membrane integrity loss in HEK cells – cell-based, fluorescence, cytotoxicity control for IDE activator project, dose response (AID 588440).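 Note: cytotoxicity by LDH release measuring loss of membrane integrity.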 It is filed as functional. The following applies: Homo sapiens.
Assay [4] deals with T1, Insulin-degrading enzyme (Homo sapiens, UniProt P14735).
T1 sequence (P14735 whole entry): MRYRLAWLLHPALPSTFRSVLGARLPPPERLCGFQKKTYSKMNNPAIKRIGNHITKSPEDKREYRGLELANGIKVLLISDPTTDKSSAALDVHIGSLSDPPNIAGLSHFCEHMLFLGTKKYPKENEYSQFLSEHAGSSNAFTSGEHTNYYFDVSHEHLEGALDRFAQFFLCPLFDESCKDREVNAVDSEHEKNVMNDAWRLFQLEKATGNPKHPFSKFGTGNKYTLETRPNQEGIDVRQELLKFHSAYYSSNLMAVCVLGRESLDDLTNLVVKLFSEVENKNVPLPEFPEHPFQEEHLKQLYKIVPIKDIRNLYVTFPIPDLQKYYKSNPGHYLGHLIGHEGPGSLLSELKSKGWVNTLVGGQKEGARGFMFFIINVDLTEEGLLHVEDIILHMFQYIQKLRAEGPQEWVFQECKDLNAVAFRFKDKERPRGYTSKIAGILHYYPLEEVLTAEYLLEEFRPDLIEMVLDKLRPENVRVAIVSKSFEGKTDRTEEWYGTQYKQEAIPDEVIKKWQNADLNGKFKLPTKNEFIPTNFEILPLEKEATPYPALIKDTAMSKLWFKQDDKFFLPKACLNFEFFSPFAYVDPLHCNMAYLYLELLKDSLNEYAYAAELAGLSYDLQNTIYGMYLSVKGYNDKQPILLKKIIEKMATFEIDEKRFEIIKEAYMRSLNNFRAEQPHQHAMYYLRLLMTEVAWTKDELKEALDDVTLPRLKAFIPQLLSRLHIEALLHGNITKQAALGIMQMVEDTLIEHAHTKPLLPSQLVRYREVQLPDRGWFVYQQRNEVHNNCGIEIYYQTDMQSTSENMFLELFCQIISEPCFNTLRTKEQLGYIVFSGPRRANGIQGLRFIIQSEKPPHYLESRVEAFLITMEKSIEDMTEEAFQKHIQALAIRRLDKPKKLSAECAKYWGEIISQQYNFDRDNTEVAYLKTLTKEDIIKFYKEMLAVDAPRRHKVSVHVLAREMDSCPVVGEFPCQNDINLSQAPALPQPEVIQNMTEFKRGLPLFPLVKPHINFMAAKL
The assay is described as follows: recombinant IDE activation, cell-free – biochemical, fluorescence polarization, counter-screen for IDE activator project, dose response (AID 588681).

The target in assay [5] is T1, Insulin-degrading enzyme. Kind of assay: cellular IDE activation of Abeta substrate cleavage – fluorescence polarization, HEK cells, dose response (AID 588439). Type of assay: functional, cell-based.
Assay [6] is described as follows: loss of viability in HepG2 cells – cell-based, CellTiter-Glo, cherry-picked, cytotoxicity control for Shn3 inhibitor project, dose response (AID 624134). Type of assay: functional. For orientation: ATP-based viability assays read luminescence as a measure of living cells.
A short description of assay [7]: non-specific 3'UTR reporter inhibition in Clone20-Shn3RL – cell-based, Renilla luciferase, cherry-picked, counter-screen for Shn3 inhibitor project, dose response (AID 624133). Type of assay: functional.
Assay [8] concerns HEK293. The assay is described as follows: EBV LMP1 TES2 canonical NF-kB signalling blockers – cell-based, HEK293, luciferase, cherry-pick, dose response (AID 588343). Type of assay: functional. The conditions noted are these: Homo sapiens.
A short description of assay [9]: reduction of Shn3 3'UTR-driven luciferase in osteoblasts – cell-based, Clone20 osteoblasts, firefly luciferase, cherry-picked, dose response (AID 624132).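 Note: firefly luciferase luminescence from reporter carrying the Shn3 3'UTR in osteoblasts.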 It is filed as functional.
A short description of assay [10]: HIV-1 AD8 envelope cell-cell fusion blockers – cherry-pick, dose response (AID 652062).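 Note: luciferase signal from cell-cell fusion driven by HIV-1 clade B AD8 Env; potency is for inhibitors of fusion seen as a drop in luminescence.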 Type of assay: functional, cell-based.
For assay [11], the system named is BJ. The assay is described as follows: cells. The conditions noted are these: Homo sapiens. Type of assay: functional, cell-based.
Assay [12] can be described thus: HEK-293T viability loss, compound-treated – cell-based, uHTS hits, cytotoxicity control for B/T-cell NF-kB inhibitor project, dose response (AID 489019).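 Note: IC50 reflects cytotoxicity as loss of cell viability.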 It is filed as functional.
For the next assay, the system named is INS1. The assay is described as follows: INS-1E survival protection against cytokine death – cell-based, luminescence, retest, dose response (AID 449756).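 Note: cell death triggered by IL-1 beta plus TNF-alpha plus IFN-gamma mixture; protective hits raise ATP signal compared with cytokine alone wells.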 Type of assay: functional. The following applies: Rattus norvegicus.
Assay [13] in a line: DRD fibroblast viability loss – cell-based, non-viral oncogenic, luminescence, dose response (AID 1934). It is filed as functional. The following applies: Homo sapiens.
Assay [14] addresses T2, Luciferin 4-monooxygenase (Photinus pyralis, UniProt P08659). The assay is described as follows: inhibition of purified Photinus pyralis luciferase – biochemical, dry powder samples, plate reader, dose response (AID 588451).
In assay [15] the target is Heat shock protein HSP 90-alpha (Homo sapiens, UniProt P07900). Type of assay: functional, organism-based.
Assay [16] can be described thus: blockers of HIV-1 envelope-mediated cell-cell fusion – cherry-pick, dose response (AID 652057). It is filed as functional, cell-based.
A further assay has as its system Jurkat. Kind of assay: blockers of NF-kB activation in T cells – Jurkat, luciferase reporter, luminescence, B- and T-cell, dose response (AID 489004).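 Note: NF-kB luciferase reporter Jurkat cells stimulated with PMA plus ionomycin.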 The conditions noted are these: Homo sapiens. It is filed as functional, cell-based.
A short description of assay [17]: viability loss in CEM21 cells – cell-based, CellTiter-Glo luminescence, cherry-picked, cytotoxicity control for viral fusion inhibitor project, dose response (AID 652042).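 Note: potency for signal decrease meaning cytotoxicity.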 Type of assay: functional.
The nature of assay [18]: viability loss in HEK293 cells – cell-based, plate reader, cherry-picked samples, cytotoxicity control, dose response (AID 743446). Type of assay: functional.
The subject of assay [19] is H4. Kind of assay: inhibitors of control reporter signal in H4 cells – cell-based, plate reader, dry powder samples, counter-screen for prion reporter project, dose response (AID 540255). Type of assay: functional. The following applies: Homo sapiens.
The test system of assay [20] is BJ. Kind of assay: BJ-TERT fibroblast viability loss – cell-based, RAS-independent, luminescence, dose response (AID 1933). Type of assay: functional. The following applies: Homo sapiens.
A short description of assay [21]: blockade of melanocortin 4 receptor signaling – cell-based, plate reader, cherry pick, counter-screen for LGR2 antagonist project, dose response (AID 743444).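 Note: transfected HEK 293 cells stimulated with alpha-MSH peptide; potency of inhibitors of the alpha-MSH evoked signal.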 It is filed as functional.
Assay [22] is described as follows: toxicity toward HepG2 liver cells – cell-based, plate reader, cherry-pick, antagonist series, cytotoxicity control, dose response (AID 743416). It is filed as functional.
Assay [23] in a line: off-target signal loss in HeLa-CEM21 co-culture – HeLa F-luc CTL cells, cherry-picked, counter-screen for HIV-1 Env fusion inhibitor project, dose response (AID 652040).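 Note: potency for signal decrease marking cytotoxic or nonspecific inhibition.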 Type of assay: functional, cell-based.
Assay [24] can be described thus: blockers of bursicon-stimulated LGR2 cAMP reporter – cell-based, HEK293, CRE-luciferase reporter, cherry pick, set 2, dose response (AID 743343).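 Note: transfected cells were stimulated with diluted bursicon conditioned medium after compound addition.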 It is filed as functional.
Assay [25] relates to BJ. The assay is described as follows: growth inhibition of engineered Ras-driven BJ cells – cell-based, alamar blue fluorescence, cherrypicked samples, dose response (AID 2631).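 Note: confirmatory dose-response assay in RAS-dependent BJ fibroblasts engineered with TERT, LT and ST, with cytotoxicity read by fluorescence.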 Type of assay: functional. The conditions noted are these: Homo sapiens.
Assay [26] in a line: A549 cell cytotoxicity, dose response, cytotoxicity control, plate reader, cherry-pick, antagonist series (AID 743412). Type of assay: functional, cell-based.
The test system of assay [27] is BJ. The assay is described as follows: BJ-TERT-LT-ST fibroblast viability loss – cell-based, RAS-independent, luminescence, dose response (AID 1935).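 Note: BJ fibroblasts immortalized with TERT plus LT and ST oncogenes.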 It is filed as functional. The conditions noted are these: Homo sapiens.
For assay [28], the target named is T2, Luciferin 4-monooxygenase. Kind of assay: inhibition of purified Photinus pyralis luciferase – biochemical, luminescence, dose response (AID 1891).
The nature of assay [29]: Luminescence Cell-Based Dose Confirmation HTS to Identify Inhibitors of Platelet Dense Granule Release. [Related pubchem assays: 1663 (Primary HTS), 1678 (Summary of Project)]. It is filed as functional.
Assay [30] has as its system H4. Kind of assay: Inhibitors of Prion Protein 5' UTR mRNA Measured in Cell-Based System Using Plate Reader - 2078-01_Inhibitor_Dose_DryPowder_Activity. [Related pubchem assays (depositor defined):AID488894]. It is filed as functional. The conditions noted are these: Homo sapiens.
Assay [31] concerns H4. Kind of assay: Amyloid Precursor 5' UTR neuroblastoma cell reporter line Measured in Cell-Based System Using Plate Reader - 2078-04_Inhibitor_Dose_DryPowder_Activity. [Related pubchem assays (depositor defined):AID488894]. It is filed as functional. The following applies: Homo sapiens.
A short description of assay [32]: blockers of HIV-1 ZM109 envelope-driven cell-cell fusion – HeLa effector, CEM target cells, luciferase, cherry-pick, dose response (AID 652058).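 Note: luciferase signal from HIV-1 Env mediated cell-cell fusion of effector and target cells.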 It is filed as functional, cell-based.

As a reminder, the EC50 is the midpoint of the concentration-response curve. A word on the IC50: it is the concentration needed to halve the response being measured. The term AC50 denotes the concentration giving half of the maximal activity seen.

Molecules are shown by their SMILES. The source made the active and inactive calls.

T2 sequence (P08659 whole entry): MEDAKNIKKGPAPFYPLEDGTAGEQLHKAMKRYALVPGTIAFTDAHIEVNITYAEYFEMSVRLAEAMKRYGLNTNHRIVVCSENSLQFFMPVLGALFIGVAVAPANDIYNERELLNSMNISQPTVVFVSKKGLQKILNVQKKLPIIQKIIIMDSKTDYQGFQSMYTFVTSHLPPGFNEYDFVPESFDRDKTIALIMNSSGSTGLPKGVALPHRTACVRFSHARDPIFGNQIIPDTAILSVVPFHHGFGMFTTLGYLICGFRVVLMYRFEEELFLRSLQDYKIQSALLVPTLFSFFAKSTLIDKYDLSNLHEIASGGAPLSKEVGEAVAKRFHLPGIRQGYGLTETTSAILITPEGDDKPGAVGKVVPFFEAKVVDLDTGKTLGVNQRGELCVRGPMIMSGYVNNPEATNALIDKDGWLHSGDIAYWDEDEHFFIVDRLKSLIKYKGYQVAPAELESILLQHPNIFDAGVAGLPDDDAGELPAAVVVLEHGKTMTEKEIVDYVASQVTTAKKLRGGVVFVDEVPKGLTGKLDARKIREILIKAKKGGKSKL
Sequence of Beta-2 adrenergic receptor (P07550 whole entry): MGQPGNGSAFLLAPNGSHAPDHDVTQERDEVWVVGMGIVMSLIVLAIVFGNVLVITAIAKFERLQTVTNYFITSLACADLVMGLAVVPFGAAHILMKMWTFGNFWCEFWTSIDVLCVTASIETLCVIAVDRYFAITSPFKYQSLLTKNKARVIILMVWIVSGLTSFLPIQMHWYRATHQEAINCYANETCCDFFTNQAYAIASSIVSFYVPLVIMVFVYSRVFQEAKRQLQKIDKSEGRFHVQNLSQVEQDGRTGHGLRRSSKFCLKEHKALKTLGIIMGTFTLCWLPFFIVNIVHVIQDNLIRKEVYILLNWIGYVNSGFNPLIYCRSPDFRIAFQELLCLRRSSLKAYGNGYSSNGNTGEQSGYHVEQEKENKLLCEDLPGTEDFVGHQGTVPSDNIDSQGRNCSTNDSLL

In the case of `Cc1ccc(N(C)S(=O)(=O)c2cc(-c3cnc(C4CC4)o3)ccc2C)cc1`, in [1], the concentration giving a half-maximal response (EC50) is 2460 nM (active).

Take `O=C(COc1cccc2cccnc12)Nc1cccc(S(=O)(=O)N2CCCC2)c1`: the EC50 was > 55900 nM (inactive) in the assay on HEK293 [2], > 54700 nM (inactive) at Insulin-degrading enzyme [4] and > 54700 nM (inactive) on Insulin-degrading enzyme [5]. The IC50 with HEK293 [3] is > 89200 nM (inactive).

In the case of `Cc1ccccc1C(=O)NC(=S)Nc1ccc(N2CCN(C(=O)c3ccccc3)CC2)cc1`, the half-maximal activity concentration (AC50) was 51500 nM (active) in assay [6], 7720 nM (active) in assay [7], 1700 nM (active) in the assay on HEK293 [8] and 1880 nM (active) in assay [9].

As for `COc1cc(SC)ccc1C(=O)Nc1nc2ccccc2[nH]1`, the AC50 in assay [6] is 28500 nM (active); in [10], 319 nM (active); with INS1 it was 1120 nM (active); in [14], 9.03 nM (active); in [15], 1420 nM (active); in assay [16], 260 nM (active). For the same compound, the AC50 is 1280 nM (active) in assay [17]; 3350 nM (active) in assay [18]; 885 nM (active) with H4 [19]; < 68 nM (active) in assay [21]; 14500 nM (active) in [22]; 513 nM (active) in [23]. In addition, the AC50 in assay [24] is < 68 nM (active); in [26], 2520 nM (active); with H4 [30], 28 nM (active); with H4 [31] it was < 0.015 nM (active); in [9] it was < 260 nM (active); in [32], 1980 nM (active). In addition, the EC50 in the assay with BJ [11] was 1260 nM (active); in assay [13], 930 nM (active); in the assay on BJ [20], 1020 nM (active); in the assay with BJ [25] it was > 133000 nM (inactive); in the assay on BJ [27] it was 2260 nM (active); in assay [28], 152 nM (active). In addition, in assay [29], the 50% effective concentration (EC50) is 240 nM (active). For the same compound, the IC50 is > 80000 nM (inactive) in [12] and < 160 nM (active) in the assay on Jurkat.
